Tests used:
Format in all cases: in vitro ADME
CYP2D6 = molecular target: T1, CYP2D6 (Homo sapiens, UniProt P10635); assay: Incubation with human cDNA-expressed CYP2D6; conditions: CYP2D6, 30 min at 37 °C with NADPH; ETN101 10 μM or M1 1 μM
T1 construct: purchased Corning Life Sciences (Woburn, MA, USA)
Procedure: (§1) ETN101 or M1 was incubated with nine human cDNA-expressed CYP enzymes (1A2, 2A6, 2B6, 2C8, 2C9, 2C19, 2D6, 2E1, and 3A4) to identify the CYPs involved in the metabolism of ETN101. Based on the preliminary study, the incubation conditions were determined as follows: Briefly, reaction mixtures of 50 μL containing ETN101 (final concentration: 10 μM) or M1 (final concentration: 1 μM), and CYPs (final amount: 5 pmol for CYP1A2, 2A6, 2C8, 2C9, 2C19, 2D6, and 3A4; 10 pmol for CYP2B6 and 2E1) were prepared in 0.1 M potassium phosphate buffer. The reaction was initiated by adding 50 μL of NADPH- regenerating system; the mixtures were incubated for 0 min or 30 min at 37 °C in triplicate. Reactions were terminated by the addition of 100 μL of ice-cold acetonitrile containing the IS (camptothecin, 200 ng/mL). Samples were centrifuged at 13,000 rpm for 5 min at 4 °C. An aliquot of 2 μL supernatant was injected in LC–MS/MS system.
(§2) For enzyme characterization, an Agilent 6460 triple quadrupole mass spectrometer coupled with a 1260 HPLC system (Agilent Technologies, Santa Clara, CA, USA) and a Kinetex Halo® C18 column (2.7 μm, 2.1 × 50 mm, Advanced Material Technology, Wilmington, DE, USA) were used for chromatographic separation. […] ETN101, M1, and M2 were detected via MRM using ESI in the positive mode. […]

CYP2C8 = molecular target: T2, CYP2C8 (Homo sapiens, UniProt P10632); assay: Incubation with human cDNA-expressed CYP2C8; conditions: CYP2C8, 30 min at 37 °C with NADPH; ETN101 10 μM or M1 1 μM
T2 construct: purchased Cypex Ltd. (Dundee, UK)
T2 sequence (P10632 1-490): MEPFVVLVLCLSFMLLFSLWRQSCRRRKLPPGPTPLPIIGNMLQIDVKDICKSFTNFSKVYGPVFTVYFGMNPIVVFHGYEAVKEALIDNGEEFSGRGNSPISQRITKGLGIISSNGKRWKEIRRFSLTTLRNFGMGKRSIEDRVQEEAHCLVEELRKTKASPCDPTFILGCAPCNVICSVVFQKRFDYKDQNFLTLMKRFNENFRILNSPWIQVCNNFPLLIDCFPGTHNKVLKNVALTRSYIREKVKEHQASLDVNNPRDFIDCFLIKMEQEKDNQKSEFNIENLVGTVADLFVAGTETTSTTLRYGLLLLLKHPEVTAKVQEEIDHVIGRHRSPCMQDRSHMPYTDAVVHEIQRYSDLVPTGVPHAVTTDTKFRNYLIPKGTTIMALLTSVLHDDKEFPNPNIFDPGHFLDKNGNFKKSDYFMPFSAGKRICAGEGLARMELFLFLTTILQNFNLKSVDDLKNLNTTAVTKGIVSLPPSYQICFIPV
Procedure: as §1, §2

CES1b = molecular target: T3, CES1b (Homo sapiens, UniProt P23141); assay: Incubation with human recombinant CES1b; conditions: 60 min at 37 °C, ETN101 10 μM or M1 1 μM
T3 construct: purchased Corning Life Sciences (Woburn, MA, USA)
T3 sequence (P23141 18-567): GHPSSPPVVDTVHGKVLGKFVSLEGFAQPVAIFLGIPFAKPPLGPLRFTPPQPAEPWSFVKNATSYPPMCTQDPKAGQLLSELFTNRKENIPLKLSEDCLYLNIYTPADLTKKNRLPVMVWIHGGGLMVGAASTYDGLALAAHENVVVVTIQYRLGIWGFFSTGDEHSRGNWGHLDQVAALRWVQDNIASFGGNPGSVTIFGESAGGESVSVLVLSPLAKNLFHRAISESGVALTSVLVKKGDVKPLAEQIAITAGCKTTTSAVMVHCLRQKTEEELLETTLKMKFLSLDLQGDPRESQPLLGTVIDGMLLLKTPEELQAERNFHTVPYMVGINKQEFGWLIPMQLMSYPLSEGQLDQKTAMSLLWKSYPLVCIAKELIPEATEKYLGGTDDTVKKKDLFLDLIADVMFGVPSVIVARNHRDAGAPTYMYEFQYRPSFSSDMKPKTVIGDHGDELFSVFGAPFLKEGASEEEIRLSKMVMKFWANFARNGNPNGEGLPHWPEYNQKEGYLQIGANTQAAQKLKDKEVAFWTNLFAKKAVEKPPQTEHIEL
Procedure: To screen for CES enzymes responsible for the hydrolysis of ETN101 or M1, 50 μL of reaction mixtures containing human cDNA-expressed CES enzymes (CES1b, CES1c, and CES2) at the concentration of 1 mg/mL, 10 μM ETN101, or 1 μM M1 in 0.1 M potassium phosphate buffer were incubated at 37 °C for 0 min or 60 min in triplicate. The reactions were quenched by adding 50 μL of ice-cold acetonitrile containing the internal standard (camptothecin, 10 μg/mL). Following centrifugation at 13,000 rpm for 5 min, a 2 μL aliquot of the supernatant was injected into the LC-MS/MS system.
The mobile phases comprised 0.1% (v/v) formic acid in water (mobile phase A) and 0.1% formic acid (v/v) in acetonitrile (mobile phase B). […] The column and auto-sampler were maintained at 40 °C and 4 °C, respectively. ETN101, M1, and M2 were detected via MRM using ESI in the positive mode. […] Mass Hunter software (Agilent Technologies) was used to control the LC-MS/MS instrument and for data processing.

T1 sequence (P10635 whole entry): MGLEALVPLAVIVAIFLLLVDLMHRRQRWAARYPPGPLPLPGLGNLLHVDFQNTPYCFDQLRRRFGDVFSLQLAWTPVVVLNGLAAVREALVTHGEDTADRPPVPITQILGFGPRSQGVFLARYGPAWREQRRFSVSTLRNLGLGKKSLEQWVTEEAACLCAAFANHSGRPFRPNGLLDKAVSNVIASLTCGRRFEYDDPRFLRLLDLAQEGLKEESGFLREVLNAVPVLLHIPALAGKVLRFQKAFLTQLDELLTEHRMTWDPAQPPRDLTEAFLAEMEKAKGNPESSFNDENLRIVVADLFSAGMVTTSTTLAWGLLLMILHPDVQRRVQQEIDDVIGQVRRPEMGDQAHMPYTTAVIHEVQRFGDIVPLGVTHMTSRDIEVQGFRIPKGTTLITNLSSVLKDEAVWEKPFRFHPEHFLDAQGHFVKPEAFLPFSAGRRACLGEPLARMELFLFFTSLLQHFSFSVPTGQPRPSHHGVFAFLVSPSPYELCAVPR

Structure (SMILES)	Percentage remaining (CYP2D6)	Percentage remaining (CYP2C8)	Percentage remaining (CES1b)
NCC(N)C(=O)Nc1ccc(-c2nc3ccccc3s2)cc1 (stereo not drawn) [ETN101, 2,3-diamino-N-(4-(benzo[d]thiazol-2-yl)phenyl)propanamide]	86.9%	105.0%	98.6%
Nc1ccc(-c2nc3ccccc3s2)cc1 [M1, 2-(4-aminophenyl)benzothiazole]	83.0%	86.6%	99.6%
